Experimental data: patent US11661433B2, “Near-IR activatable fluorescent small molecules with dual modes of cytotoxicity” (VIRGINIA COMMONWEALTH UNIVERSITY, priority 2018, dated 2023)
Like-named read-outs stand apart in the source and are kept apart here.

Assays:
[1] = tested on: MCF-7 (human breast cancer); assay: MTT assay, MCF-7 cells; format: cell-based
Method: (§1) MTT assay: Cytotoxic profiles of the compounds were assessed in the following cell lines (passage number not exceeding 15): MCF-7 (human breast cancer) C-33 A (human cervical carcinoma) and HEK293T (transformed human kidney). Around 6000 cells were seeded in 96 well transparent flat-bottom tissue-culture plate in 200 μl of Dulbecco's Modified Eagle Medium (DMEM) containing 10% FBS (Fetal Bovine Serum) and were incubated for 24 h at 37° C. and 5% CO2. We performed an initial control experiment with vehicle alone (0.1% DMSO-DMEM) on cells with different dosages of near-IR light and compared it to unexposed counterparts. […] One such plate was exposed to near-IR light for 45 min in phenol-red free DMEM (200 μl) and room temperature was maintained using a cooling system. Another identical plate was kept in dark. The plates were incubated for another 24 h in dark. Finally, MTT [3-(4,5-dimethylthiazole-2-yl)-2,5-diphenyltetrazolium bromide] (25 μl of 5 mg/ml solution in PBS) was added and incubated for 3-4 h. The absorbance of the precipitated formazan was recorded at 550 nm in DMSO. Cells treated with 0.1% DMSO-DMEM was kept as controls which represented 100% viability. The half-growth inhibitory concentration (IC50) values were calculated by nonlinear regression analysis using GraphPad Prism5. The data is represented from two independent set of experiments, each of which was performed in triplicate.

[2] = tested on: C-33 A (human cervical carcinoma); assay: MTT assay, C-33 A cells; format: cell-based
Method: as §1

[3] = tested on: ctDNA; assay: DNA bound Pt content by ICP-MS; format: biochemical; settings: extended incubation with ctDNA in the dark
Method: DNA bound Pt content: A 1×-PBS solution containing ctDNA (500 μM) and 1 (50 μM in 0.1% DMSO-PBS) was irradiated with near-IR light (720-740 nm) for 15, 30 and 60 mins. Another identical set was incubated in dark for comparison. After treatment, the DNA was precipitated from the solutions using 10 mL of cooled ethanol, vortexed, and collected by centrifugation. The precipitate was washed twice with cooled ethanol (5 mL) to remove soluble platinum complexes. The white fibrous precipitate was dissolved using 200 μl of conc. HNO3 for 12 h and diluted with distilled water to 2% HNO3-water solutions. Platinum content was measured by ICP-MS instrument. Untreated samples (DNA alone, complex alone) were kept for control. Platinum standards were made by dissolving K2PtCl4 in 98% aq. HNO3 and used for calibration. The data along with the deviation is reported based on experiments performed in duplicate.

[4] = tested on: ctDNA; assay: DNA melting experiments and Hoechst displacement assays; format: binding; settings: in the dark
Method: DNA thermal denaturation experiments: The DNA thermal denaturation experiments were performed by monitoring the absorption intensity of ct-DNA (200 μM) at 260 nm at increasing temperatures (from 40 to 90° C.), both in the absence and presence of complex 1 and IR797-acac (20 μM in 1% DMSO-DPBS solutions, pH=7.2). The experiments were performed using Agilent UV-visible spectrophotometer connected to a Peltier thermostat for temperature control. Data was recorded with increasing the temperature of the solution by 1.0° C. per min. The derivative of the melting plots gave the DNA melting temperature (Tm) of the ct-DNA. Ethidium bromide (20 μM) as a standard intercalator was used for comparison.

[5] = tested on: human cancer cell lines; assay: MTT cytotoxicity in a panel of human cancer cell lines; format: cell-based; settings: dark, similar conditions
Method: MTT assay: Cytotoxic profiles of the compounds were assessed in the following cell lines (passage number not exceeding 15): MCF-7 (human breast cancer) C-33 A (human cervical carcinoma) and HEK293T (transformed human kidney). Around 6000 cells were seeded in 96 well transparent flat-bottom tissue-culture plate in 200 μl of Dulbecco's Modified Eagle Medium (DMEM) containing 10% FBS (Fetal Bovine Serum) and were incubated for 24 h at 37° C. and 5% CO2. We performed an initial control experiment with vehicle alone (0.1% DMSO-DMEM) on cells with different dosages of near-IR light and compared it to unexposed counterparts. The cells were unharmed by light and vehicle alone up to 45 min of photoirradiation. Cells were treated with various concentrations of 1, 2, IR797-acac, cisplatin and an equimolar mixture of IR797-acac and cisplatin in 0.1% DMSO-DMEM for 4 h or 48 h in the dark. One such plate was exposed to near-IR light for 45 min in phenol-red free DMEM (200 μl) and room temperature was maintained using a cooling system. Another identical plate was kept in dark. The plates were incubated for another 24 h in dark. Finally, MTT [3-(4,5-dimethylthiazole-2-yl)-2,5-diphenyltetrazolium bromide] […] The absorbance of the precipitated formazan was recorded at 550 nm in DMSO. […] The half-growth inhibitory concentration (IC50) values were calculated by nonlinear regression analysis using GraphPad Prism5. […]

[6] = Solubility in solvents; format: physicochemical
Method: Synthesis of IR797-acac: IR797 chloride (250 mg, 0.49 mmol), acetylacetone (245 μl, 2.45 mmol) and N,N-diisopropylethylamine (90 μl, 0.49 mmol) were dissolved in acetonitrile (10 mL) in a sealed vial. The dark green colored solution was heated at 70° C. on a microwave apparatus (Discover, CEM, 60 W) for 15 mins. The progress of the reaction was monitored via TLC and stopped only after full consumption of the starting dye. The reaction mixture was allowed to cool down to room temperature and dichloromethane (50 mL) was added. The organic layer was washed using saturated sodium bicarbonate solution (2×10 ml), dried over anhydrous sodium sulfate, filtered, and evaporated using a rotavac. The crude material was subjected to column chromatography using ethyl acetate (100%) and dichloromethane-methanol eluents (0-10%) to yield pure product, IR797-acac (150 mg, 50% yield). ^1H NMR (400 MHz, CDCl3): δ (ppm)=7.43-7.36 (m, 4H), 7.31 (d, J=7.4 Hz, 2H), 7.21 (t, J1=J2=7.2 Hz, 2H), 7.11 (d, J=8.0 Hz, 2H), 6.20 (d, J=14 Hz, 2H), 3.74 (s, 6H), 3.15 (s, 4H), 2.00 (s, 6H), 1.58 (s, 12H). ^13C NMR (100 MHz, CDCl3): δ (ppm)=191.42, 170.78, 144.66, 142.96, 140.71, 137.40, 128.80, 124.99, 122.04, 110.04, 103.39, 48.82, 32.53, 28.42, 23.60. ESI-MS in MeCN: m/z (expected)=533.33, m/z (observed)=533.32 [M-Cl]^+ (100%). […]

[7] = Photodecomposition and dark stability (absorbance, LC-MS); format: physicochemical; settings: buffer, pH 7.4
Method: High performance liquid chromatography: For verifying purity, samples (25 μl in 2.5% DMSO-H2O) were loaded on an analytical C18 column and gradient was maintained at 10-100 percent of MeCN—H2O from 10-50 min. The absorbance was measured at different wavelengths within the range of 200-800 nm. For photolysis experiments, solution of 1 (30 μl of 100 nM in 0.01% of DMSO-PBS, irradiated for 1 min) was injected on the column and eluted using the same gradient as above.
Liquid-chromatography mass spectral experiments: Solutions of 1 and IR797-acac (100 nM in 0.01% DMSO-PBS) were used to carry out LC-MS studies. Samples were injected on a self-packed fused silica (polymicro technologies) trap column (360 micron o.d.×100 micron i.d.) with a Kasil frit packed with 5-15 micron irregular phenyl C-18 YMC packing. The trap column is connected to an analytical column (360 micron×50 micron) with a fritted tip at 5 micron or less (New Objective) packed with 5 μm phenyl C-18 YMC packing. Compounds were initially trapped and then eluted into a Thermo Finnigan LCQ deca XP max mass spectrometer (Thermo Scientific) with an acetonitrile gradient from 0% to 80% over 5 minutes at a flow rate of between 50-150 nl/min. […]

N.N.[Cl][Pt][Cl] [CP, cisplatin, reference compound]
IC50 ([1]; cisplatin incubated 48 h in the dark, light 45 mins, 720-740 nm, read-out: IC50 MCF-7 Light): 22.5 ± 3.2 µM
IC50 ([1]; cisplatin incubated 48 h in the dark, read-out: IC50 MCF-7 Dark): 25 ± 2.2 µM
IC50 ([2]; cisplatin incubated 48 h in the dark, light 45 mins, 720-740 nm, read-out: IC50 C-33 A Light): 16.1 ± 1.5 µM
IC50 ([2]; cisplatin incubated 48 h in the dark, read-out: IC50 C-33 A Dark): 17.7 ± 1.5 µM

CC1=CC(C)=[O+][Pt-2]([NH3+])([NH3+])[O]1.O=[N+]([O-])[O-] (centres unmarked) [Complex 2, [Pt(NH3)2(acac)](NO3)], reference compound]
incorporation of Pt into DNA in the dark [3]: slow incorporation

CC(=O)C(=C(C)O)C1=C(C=CC2=[N+](C)c3ccccc3C2(C)C)CCC1=CC=C1N(C)c2ccccc2C1(C)C.[Cl-] [IR797-acac]
DNA interaction mode [4]: interact with the minor groove of ctDNA
IC50 ([1]; 4 h in dark, then light 45 mins, 720-740 nm, 3.5 ± 1.5 mW·cm^−2, read-out: IC50 MCF-7 Light): 4.7 ± 0.8 µM
IC50 ([1]; 4 h in the dark, read-out: IC50 MCF-7 Dark): 5.9 ± 0.3 µM
toxicity in unexposed cells [5]: toxic on its own
IC50 ([2]; 4 h in dark, then light 45 mins, 720-740 nm, 3.5 ± 1.5 mW·cm^−2, read-out: IC50 C-33 A Light): 0.3 ± 0.07 µM
IC50 ([2]; 4 h in the dark, read-out: IC50 C-33 A Dark): 1.2 ± 0.1 µM
solubility [6]: readily soluble in polar solvents
half-life of photodecomposition t1/2^L [7]: ~40 s
stability in dark t1/2^D [7]: ~10 h
